Question: Which melting point does the source give for O=C(O)c1cc([N+](=O)[O-])c(Cl)c(S(=O)(=O)Cl)c1 here?
Answer: 189 to 190 °C

Question: With CCOC(=O)c1c(C(C)C)nc2c(c1-c1ccc(F)cc1)CCCC2(C)C as the compound, how does the melting point read?
Answer: 124 to 126 °C

Question: For CCN(CC)C(=O)c1ccc2ccccc2c1-c1ccc(OC)cc1, which melting point is on record?
Answer: 114 to 116 °C

Question: With O=C1NCCCN1c1cc(C(c2cc(F)ccc2F)S(=O)(=O)c2ccc(Cl)cc2)c(Cl)cn1 (configuration not stated) as the compound, how does the melting point read?
Answer: > 230 °C

Question: Which melting point does the source give for Cc1ccc(C(=O)n2c(C)c(CC(=O)O)c3cc4c(cc32)OCCO4)cc1 here?
Answer: 162 to 163 °C

Question: Which melting point does the source give for COc1cc(OCc2nc(-c3ccco3)oc2C)ccc1COc1nn(Cc2ccccc2)cc1C=O here?
Answer: 147 to 148 °C

Question: Which melting point does the source give for Cc1ccc(-c2nc3c(O)cccc3s2)cc1 here?
Answer: 164 to 166 °C

Question: For NCc1ccc(N2CCN(c3ccncc3)CC2)cc1, which melting point is on record?
Answer: 168 to 170 °C

Question: For Cc1ccccc1NC(=O)Nc1ccc(CC(=O)N2CCN(C(C)C(=O)O)C(=O)C2Cc2ccccc2)cc1 (configuration not stated), which melting point is on record?
Answer: 103 to 105 °C

Question: For CCNC(=O)NC(CC)c1ccc(Cl)c2nc3n(c12)CCCN3c1ccc(Cl)cc1Cl (configuration not stated), which melting point is on record?
Answer: 250 to 252 °C

Question: Which melting point does the source give for CN(C)C=Cc1ncc([N+](=O)[O-])n1CCc1ccncc1 here?
Answer: 190 to 191 °C

Question: With CCOC(=O)/C=C/c1ccc(OS(=O)(=O)C(F)(F)F)c(Cl)c1 as the compound, how does the melting point read?
Answer: 59 to 61 °C

Question: Which melting point does the source give for CNC(=O)C1=CC(COC)(COC)Oc2ccc([N+](=O)[O-])cc21 here?
Answer: 147 to 149 °C

Question: With Cc1c(C(F)(F)F)ncn(-c2c(Cl)cc(C(F)(F)F)cc2C#N)c1=O as the compound, how does the melting point read?
Answer: 154 to 155 °C

Question: With Nc1ncc(CCO)s1 as the compound, how does the melting point read?
Answer: 125 to 127 °C

Question: For N#CC(Sc1ccccc1)=C1SCCN1c1ccccc1, which melting point is on record?
Answer: 143 to 145 °C

Question: For CSc1nsc(NC(=O)C(C)(C)C)c1C#N, which melting point is on record?
Answer: 177 to 178 °C

Question: With CC1(C)CC(=O)C2=C(C1)NC1=C(C(=O)CC(C)(C)C1)C2c1ccc([N+](=O)[O-])c(OCc2ccccc2)c1 as the compound, how does the melting point read?
Answer: 239 to 240 °C

Question: With CCc1ccc2ncc(C(=O)N(O)c3ccccc3)c(O)c2c1 as the compound, how does the melting point read?
Answer: 218 °C

Question: For N#CC(C#N)=CN(N=C(C#N)C#N)c1ccc(Cl)c(Cl)c1, which melting point is on record?
Answer: 162 to 164 °C

Question: For O=C(Cc1ccc(Cl)cc1)OC(c1ccccc1)c1ccccc1, which melting point is on record?
Answer: 107 to 108 °C

Question: With N#Cc1cnc2c(oc3ccccc32)c1Nc1ccc(Cl)cc1F as the compound, how does the melting point read?
Answer: 259 to 261 °C

Question: For COC(=O)c1cccc(-c2nc(-c3ccc(C(F)(F)F)cc3)cs2)c1, which melting point is on record?
Answer: 142 to 143 °C

Question: Which melting point does the source give for CCOc1cccc(-c2nc(-c3ccccc3COC(=O)OCc3ccccc3-c3n[nH]c(-c4cccc(OCC)c4)n3)n[nH]2)c1 here?
Answer: 143 to 145 °C

Question: Which melting point does the source give for CC(=O)Nc1ncc(SC#N)s1 here?
Answer: 212 °C

Question: With O=c1nc(-c2ccc(C(F)(F)F)cc2)sc2ccccc12 as the compound, how does the melting point read?
Answer: 122 to 123 °C

Question: Which melting point does the source give for Cn1cc(C(=O)O)c(=O)c2c3cc(N4CCN(c5ccc(F)c(Cl)c5)CC4)c(Cl)c(F)c3ncc21 here?
Answer: > 260 °C

Question: Which melting point does the source give for CCC12CCC3C4CCC(OC(C)=O)=CC4=CCC3C1CCC2OC(C)=O (configuration not stated) here?
Answer: 148 to 156 °C

Question: With CCCCCc1ccc(C(=O)Oc2ccc(C#N)c(F)c2F)cc1 as the compound, how does the melting point read?
Answer: 33 °C

Question: Which melting point does the source give for COc1ccc(NC(=O)CBr)c([N+](=O)[O-])c1 here?
Answer: 94 to 98 °C

Question: Which melting point does the source give for COc1ccccc1-c1ccc2cnc(Nc3ccc4c(c3)NC(=O)CC4)nn12 here?
Answer: 310 to 313 °C

Question: For Cc1c[nH]c2c([N+](=O)[O-])ccc(C)c2c1=O, which melting point is on record?
Answer: 250 to 262 °C

Question: For O=C(CS(=O)(=O)Cc1ccccc1)CS(=O)(=O)C(c1ccc(Cl)cc1)c1ccc(Cl)cc1, which melting point is on record?
Answer: 72 to 90 °C

Question: With CCCC(=O)C(=CNc1ccc(O)cc1OC)C(=O)OCC as the compound, how does the melting point read?
Answer: 140 to 142 °C

Question: With Oc1cc2c(-c3ccccc3)csc2c(Cl)c1Cl as the compound, how does the melting point read?
Answer: 157 to 159 °C

Question: With Cc1c(CC(=O)O)oc2ccc(Cl)cc12 as the compound, how does the melting point read?
Answer: 149 to 150 °C

Question: For CCOC(C(N)=O)N(c1ccc(Cl)cc1Cc1c(F)cccc1F)S(=O)(=O)c1ccc(OC)c(OC)c1 (configuration not stated), which melting point is on record?
Answer: 154 °C

Question: With O=C(Nc1ccc(C(=O)N2Cc3ccccc3Cc3cc(Cl)ccc32)cc1)c1ccc(Cl)cc1Cl as the compound, how does the melting point read?
Answer: 199 to 201 °C

Question: Which melting point does the source give for COC(=O)C(CCCNC(=N)N[N+](=O)[O-])NC(=O)CCCC(=O)NCc1ccccc1 (single isomer, unassigned; (-)) here?
Answer: 97 to 99 °C

Question: Which melting point does the source give for CSc1ccc(Br)cn1 here?
Answer: 39 to 40 °C

Question: With COc1ccc2c(c1)CCn1c-2ncc(C(=O)O)c1=O as the compound, how does the melting point read?
Answer: 232 to 234 °C

Question: With Cc1ccc(NC(=O)c2snnc2C2CC2)cc1Cl as the compound, how does the melting point read?
Answer: 150 to 153 °C

Question: For O=S(=O)(CC(O)(CO)c1ccccc1)c1ccccc1 (configuration not stated), which melting point is on record?
Answer: 137 °C

Question: With CC(c1oc2ccccc2c(=O)c1-c1ccccc1)n1cnc2c(N)ncnc21 (configuration not stated) as the compound, how does the melting point read?
Answer: 254 to 257 °C

Question: With COC(=O)CNC(=O)c1ccc(C(=O)NS(=O)(=O)c2ccc(CCNC(=O)C(C)C)cc2)cn1 as the compound, how does the melting point read?
Answer: 197 to 199 °C

Question: With CC1(C)Oc2cc(C#N)sc2[C@@H](N2CCCCC2=O)[C@@H]1OCc1ccccc1 (relative stereo) as the compound, how does the melting point read?
Answer: 174 to 178 °C

Question: Which melting point does the source give for O=C(O)C1Cc2ccc3ccccc3c2C1 (single isomer, unassigned; (-)) here?
Answer: 139 to 141 °C

Question: For CCC(CCSc1cc(OC)c(O)c(OC)c1)(c1cccs1)N(C)C (configuration not stated), which melting point is on record?
Answer: 78 to 80 °C

Question: With CCCCCCOc1ccc(-c2ncc(-c3ccc(O)c(F)c3F)cn2)cn1 as the compound, how does the melting point read?
Answer: 150 to 155 °C

Question: With Oc1ncn(-c2ccccc2)n1 as the compound, how does the melting point read?
Answer: 281 to 282 °C

Question: Which melting point does the source give for O=C1OCC(c2ccccc2)C1CS (configuration not stated) here?
Answer: 41 to 42 °C

Question: For Fc1ccc(Cn2c(NC3CCN(CCCCNc4nc5cnccc5[nH]4)CC3)nc3ccccc32)cc1, which melting point is on record?
Answer: 228 °C

Question: For CC=CCn1c(C)c(C)c2cnnc(OCc3ccco3)c21, which melting point is on record?
Answer: 84 to 85 °C

Question: With COc1ccc2ccccc2c1C(Nc1ccccc1C)C(N)=O (configuration not stated) as the compound, how does the melting point read?
Answer: 195 °C

Question: Which melting point does the source give for CCc1ccc2[nH]c(C(=O)OCc3ccccc3)cc2c1 here?
Answer: 99 °C

Question: With C=CCN/C(=C1/Sc2ccccc2C1=O)c1ccccc1 as the compound, how does the melting point read?
Answer: 104 to 106 °C

Question: With COC(=O)Nc1cn2cc(Sc3ccccn3)ccc2n1 as the compound, how does the melting point read?
Answer: 230 to 236 °C

Question: For CCCCC[C@@H](C(=O)O)c1cccc2c1OCO2, which melting point is on record?
Answer: 47 to 48 °C

Question: Which melting point does the source give for O=c1oc(-c2ccccc2)cc(O)c1SCc1ccc2c(c1)OCO2 here?
Answer: 162 to 164 °C

Question: For C=Cc1ccc(-c2ccc(OC(C)=O)cc2)cc1, which melting point is on record?
Answer: 119 to 122 °C

Question: With CCCSc1ncc(CC(NC(=O)C2CCCC2)C(=O)O)n1Cc1ccccc1Cl (configuration not stated) as the compound, how does the melting point read?
Answer: 173 to 175 °C

Question: With CC(C)(C)c1ccc(Nc2nnc(Cc3ccc(O)nc3)c3ccccc23)cc1 as the compound, how does the melting point read?
Answer: 134 to 135 °C

Question: With OC(C(=Cc1cccnc1)c1ccc(F)cc1)c1ccccc1Cl (configuration not stated) as the compound, how does the melting point read?
Answer: 82 to 83 °C

Question: For COc1nc(O)c(C(=O)O)nc1Cl, which melting point is on record?
Answer: 170 to 173 °C

Question: With COc1nc2cc([N+](=O)[O-])c(C)c(C(=O)N[C@@H](Cc3ccccc3)C(=O)OC(C)(C)C)c2nc1OC as the compound, how does the melting point read?
Answer: 86 to 88 °C

Question: For CCOC(=O)C1CCN(C(=O)OC)CC1=O (configuration not stated), which melting point is on record?
Answer: 36 to 38 °C

Question: With CC(C)OC(=O)CS(=O)(=O)C=C1SC=CS1 as the compound, how does the melting point read?
Answer: 127 to 128 °C

Question: For COC(=O)c1ccccc1S(=O)(=O)NC(=O)c1ccc2c(C)cc(C)nn12, which melting point is on record?
Answer: 200 to 202 °C

Question: Which melting point does the source give for CCc1nn(CC(N)=O)c(CC)c1Oc1cccc(C#N)c1 here?
Answer: 159 to 160 °C

Question: Which melting point does the source give for Cc1cc(C(N)=O)ncc1C(c1c(F)ccc(F)c1F)S(=O)(=O)CC1CC1 (configuration not stated) here?
Answer: 222 to 223 °C

Question: Which melting point does the source give for CC(C)C(=O)C(=CN(C)C)c1ccc(Cl)cc1 here?
Answer: 95 °C

Question: Which melting point does the source give for CC(O)=C(C#N)C(=O)c1ccc(F)c(F)c1 here?
Answer: 51 to 54 °C

— a melting point compilation (Tetko et al.; mined from patent text by program, amines drawn as free bases though some values may be those of a salt)
